According to US7647217B2, “Structure of the farnesoid X receptor ligand binding domain and methods of use therefor” (The Salk Institute for Biological Studies, priority 2002, dated 2010):

Tests used:
Test in all cases: GAL4 chimeric NHR cross-reactivity assay
Assay type in all cases: cell-based
Conditions in all cases: 10 μM
hLXRα = target: T1, hLXRα (Homo sapiens, UniProt Q13133)
T1 construct: expressed in transfected cells; host or cells: CV-1 (monkey)
T1 sequence (Q13133 209-447 limits assumed): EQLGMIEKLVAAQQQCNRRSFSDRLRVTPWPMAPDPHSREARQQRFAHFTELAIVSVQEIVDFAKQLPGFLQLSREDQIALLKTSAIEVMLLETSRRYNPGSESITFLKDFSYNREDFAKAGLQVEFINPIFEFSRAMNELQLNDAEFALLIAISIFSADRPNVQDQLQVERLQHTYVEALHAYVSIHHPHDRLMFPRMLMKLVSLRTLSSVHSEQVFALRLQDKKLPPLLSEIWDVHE
Procedure: (§1) FIGS. 3A-3E collectively show the results of ligand activation of CV-1 cells co-transfected with a luciferase reporter gene with a variety of receptor expression constructs. […] FIGS. 3C-3E show the results of CV-1 cells transiently transfected with the indicated reporter constructs, treated with either DMSO or 10 μM of the compounds fexaramine (3C), fexarine (3D), fexarene (3E). Reporter activity was normalized to the internal control and the data plotted as fold activation relative to untreated cells. All transfections contained CMX-βgal as an internal control.
(§2) The expression plasmids pCMX, pCMX-LacZ, pCMX-mFXRFL, pCMX-hRXRFL, pCMX-GALDBD-rFXRLBD and other pCUX-GALDBD-NR LBDs (hRXRα, hPPARαγδ, mPXR, hPXR, hLXRα, HTRβ, hRARβ, mCAR, mERR3 and hVDR) have been described elsewhere (Blumberg et al. (1998). SXR, a novel steroid and xenobiotic-sensing nuclear receptor. Genes Dev. 12(20), 3195-205). The reporter plasmids pMH2004-TK-luc, pTKECRE*6-luc, pTKER-8*2-luc and pMRP-2-luc also have been described elsewhere. The hPLTP-luc promoter was kindly provided by Dr Dennis Dowhan and the hIBABP-luc promoter was created from a plasmid provided by Dr Philippe Besnard.
(§3) Cell-based transcriptional activation assays using chimeric nuclear hormone receptor (NHR) constructs were established to measure the selectivity of the compounds to FXR relative to other NHRs (Forman et al. (1995). Identification of a nuclear receptor that is activated by farnesol metabolites. Cell 81, 687-693). These assays used fusion proteins with the yeast GAL4 DNA binding domain connected to the ligand-binding domain (LBD) of NHRs. These constructs were co-transfected with a thymidine kinase C minimal promoter reporter vector containing four copies of the GAL4 binding site. Titration experiments were then performed using the identified compounds. […] Addition of RXR had no effect on the activation potential of fexaramine, fexarine, fexarene in this assay.
(§4) No activity was observed on other chimeric NHR constructs including hRXRα, hPPARαγδ, mPXR, hPXR, hLXRα, hTRβ, hRARβ, mCAR, mERR3 and hVDR (see FIGS. 3C-3E).

hTRβ = target: T2, hTRβ (Homo sapiens, UniProt P10828)
T2 construct: expressed in transfected cells; host or cells: CV-1 (monkey)
T2 sequence (P10828 217-461 limits assumed): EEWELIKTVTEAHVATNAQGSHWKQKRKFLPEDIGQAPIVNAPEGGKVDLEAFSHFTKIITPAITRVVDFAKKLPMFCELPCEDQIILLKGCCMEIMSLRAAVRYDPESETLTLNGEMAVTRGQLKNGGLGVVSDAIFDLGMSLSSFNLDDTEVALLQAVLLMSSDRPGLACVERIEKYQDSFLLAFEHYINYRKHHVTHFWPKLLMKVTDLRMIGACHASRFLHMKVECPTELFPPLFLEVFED
Procedure: as §1, §2, §3, §4

mERR3 = target: T3, mERR3 (Mus musculus, UniProt P62509)
T3 construct: expressed in transfected cells; host or cells: CV-1 (monkey)
T3 sequence (P62509 233-457 limits assumed): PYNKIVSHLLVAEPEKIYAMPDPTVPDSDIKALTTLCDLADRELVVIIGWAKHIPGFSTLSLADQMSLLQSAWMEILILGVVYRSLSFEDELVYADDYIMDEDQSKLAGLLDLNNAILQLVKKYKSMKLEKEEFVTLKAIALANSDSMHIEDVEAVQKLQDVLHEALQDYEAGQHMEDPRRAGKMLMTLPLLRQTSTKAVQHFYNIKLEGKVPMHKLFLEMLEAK
Procedure: as §1, §2, §3, §4

hRXRα = target: T4, hRXRα (Homo sapiens, UniProt P19793)
T4 construct: expressed in transfected cells; host or cells: CV-1 (monkey)
T4 sequence (P19793 227-458 limits assumed): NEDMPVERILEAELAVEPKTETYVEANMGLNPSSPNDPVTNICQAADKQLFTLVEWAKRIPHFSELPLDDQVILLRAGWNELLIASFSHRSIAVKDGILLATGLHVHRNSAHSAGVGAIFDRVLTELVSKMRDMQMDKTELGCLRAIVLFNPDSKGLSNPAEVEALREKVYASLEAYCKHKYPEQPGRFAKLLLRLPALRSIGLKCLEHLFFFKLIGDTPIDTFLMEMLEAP
Procedure: as §1, §2, §3, §4

hRARβ = target: T5, hRARβ (Homo sapiens, UniProt P10826)
T5 construct: expressed in transfected cells; host or cells: CV-1 (monkey)
T5 sequence (P10826 183-417 limits assumed): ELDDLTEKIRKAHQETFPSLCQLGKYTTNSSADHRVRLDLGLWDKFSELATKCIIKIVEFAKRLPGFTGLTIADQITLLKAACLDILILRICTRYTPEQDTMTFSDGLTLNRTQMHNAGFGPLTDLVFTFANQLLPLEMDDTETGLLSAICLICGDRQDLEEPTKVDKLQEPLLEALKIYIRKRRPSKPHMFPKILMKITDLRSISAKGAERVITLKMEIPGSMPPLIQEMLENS
Procedure: as §1, §2, §3, §4

mCAR = target: T6, mCAR (Mus musculus, UniProt O35627)
T6 construct: expressed in transfected cells; host or cells: CV-1 (monkey)
T6 sequence (O35627 119-358 limits assumed): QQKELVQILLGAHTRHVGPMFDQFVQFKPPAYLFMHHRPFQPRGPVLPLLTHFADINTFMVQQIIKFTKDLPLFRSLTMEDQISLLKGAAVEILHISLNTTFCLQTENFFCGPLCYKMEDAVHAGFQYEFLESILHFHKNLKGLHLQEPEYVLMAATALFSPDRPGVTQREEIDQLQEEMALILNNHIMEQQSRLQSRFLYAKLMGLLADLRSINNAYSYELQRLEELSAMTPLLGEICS
Procedure: as §1, §2, §3, §4

hVDR = target: T7, hVDR (Homo sapiens, UniProt P11473)
T7 construct: expressed in transfected cells; host or cells: CV-1 (monkey)
T7 sequence (P11473 127-423 limits assumed): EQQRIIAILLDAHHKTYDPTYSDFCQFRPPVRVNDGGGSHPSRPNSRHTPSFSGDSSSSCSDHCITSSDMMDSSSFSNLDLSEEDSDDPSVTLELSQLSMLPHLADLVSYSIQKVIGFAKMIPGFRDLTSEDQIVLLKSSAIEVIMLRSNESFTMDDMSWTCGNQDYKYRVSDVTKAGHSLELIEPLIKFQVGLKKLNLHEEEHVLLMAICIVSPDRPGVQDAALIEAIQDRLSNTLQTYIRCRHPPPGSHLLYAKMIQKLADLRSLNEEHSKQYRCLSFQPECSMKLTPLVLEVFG
Procedure: as §1, §2, §3, §4

Row | activity on chimeric hLXRα construct (hLXRα) | activity on chimeric hTRβ construct (hTRβ) | activity on chimeric mERR3 construct (mERR3) | activity on chimeric hRXRα construct (hRXRα) | activity on chimeric hRARβ construct (hRARβ) | activity on chimeric mCAR construct (mCAR) | activity on chimeric hVDR construct (hVDR) | SMILES
1 | No activity | No activity | No activity | No activity | No activity | No activity | No activity | COC(=O)/C=C/c1cccc(N(Cc2ccc(-c3ccc(N(C)C)cc3)cc2)C(=O)C2CCCCC2)c1 [fexaramine]
2 | No activity | No activity | No activity | No activity | No activity | No activity | No activity | COC(=O)/C=C/c1cccc(N(Cc2ccc(/C=C/c3ccccc3)cc2)C(=O)C2CCCCC2)c1 [fexarene]
3 | No activity | No activity | No activity | No activity | No activity | No activity | No activity | COC(=O)/C=C/c1cccc(N(Cc2ccc(-c3ccc4c(c3)OCO4)cc2)C(=O)C2CCCCC2)c1 [fexarine]
